The values below come from US20260224563A1, “CRYSTALLINE FORMS OF 6-(3-((5-CHLORO-2-METHOXYPYRIDINE)-3-SULFONAMIDO)-2,6-DIFLUOROPHENYL)-N-METHYLIMIDAZO[1,5-A]PYRAZINE-1-CARBOXAMIDE AND METHODS FOR USING THE SAME” (HIBERCELL, INC., priority 2023, published 2026).

The structures appear in SMILES notation. Values after ≈ are worked out from the molar mass of the structure shown. Read-outs that look alike come from different tables or passages of the source.

Type in all cases: physicochemical
Data set [1] can be described thus: Water activity study of the crystalline potassium salt forms (acetone/water suspension, XRPD). As to conditions: water/acetone. The method, then:
A water activity study of the potassium salt forms was conducted in two groups: (i) Form I and Form III of the potassium salt, and (ii) Form II and Form III of the potassium salt.
Each suspension was shaken at 700 rpm in a shaker at 25° C., 35° C., 45° C., and 50° C., and the sample was analyzed by XRPD.

Data set [2] can be described thus: Solubility in simulated biological fluid (FaSSGF and FaSSIF) at 37° C., HPLC; pH of filtrate, XRPD of filter cake. As to conditions: for pH (24 h): filtrate; for XRPD (filter cake, crystal form): up to 24 hours; for XRPD: filter cake. As for the experimental part: Approximately between 15 mg and 24 mg of sample was suspended in 5 mL or 8 mL of FaSSGF or FaSSIF, respectively. The resulting suspension was shaken at 700 rpm with a QQMSC-100 shaker at 37° C. The suspension was sampled and filtered at certain time intervals, which was achieved by sampling 1000 μL of each suspension which was then filtered and diluted, diluting the resulting filtrate for HPLC analysis to assess solubility. The pH of the filtrate was measured, and the filter cake was analyzed by XRPD.
Approximately 15 mg to 24 mg of sample was suspended in 5 or 8 mL of FaSSGF or FaSSIF, respectively. The resulting suspension was shaken at 700 rpm with a QQMSC-100 shaker at 37° C. The suspension was sampled and filtered at certain time intervals, which was achieved by sampling 1000 μL of each suspension was filtered and diluted, diluting the resulting filtrate for HPLC analysis to assess solubility. The pH of the filtrate was measured, and the filter cake was analyzed by XRPD.
Approximately 15 mg to 24 mg of sample was suspended in 5 or 8 mL of FaSSGF or FaSSIF, respectively. The resulting suspension was shaken at 700 rpm with a QQMSC-100 shaker at 37° C. The suspension was sampled and filtered in certain time interval, which was achieved by sampling 1000 μL of each suspension was filtered and diluted, diluting the resulting filtrate for HPLC analysis to assess solubility. The pH of the filtrate was measured, and the filter cake was analyzed by XRPD.

Data set [3] in a line: Solid-state stability (60° C./closed and 40° C./75% relative humidity open, up to seven days; HPLC purity, XRPD). As for the experimental part: HPLC method for stability and solubility testing is listed below.
• Column: Ascentis® Express C18 4.6*150 mm*2.7 μm • Mobile Phase A: 0.05% trifluoroacetic acid in water • Mobile Phase B: Methanol • Gradient (T/B %): 0/10, 10/100, 13.5/10, 15/10 • Column Temperature: 40° C. • Detector: DAD; 220 nm • Flow rate: 1.0 mL/min • Injection volume: 1 μL • Concentration: 1 mg/mL • Run time: 15 minutes • Diluent: Methanol:Water 9:1 (v/v)
The solid-state stability of Form III of the potassium salt was performed using the following protocol: • (1) A sample of Form III of the potassium salt was placed at 60° C./closed and 40° C./75% relative humidity (open) conditions for up to seven days. At the onset of the test (day 0) and day 7 of the test, the sample was dissolved in a diluent to prepare a 1 mg/mL solution for HPLC purity analysis. The solid sample was analyzed by XRPD to assess the crystal form of each solid at day 7. […] The XRPD data confirmed the physicochemical stability of Form III of the potassium salt under both closed and open conditions. […]

A short description of data set [4]: Dynamic vapor sorption (DVS). As to conditions: for DVS weight gain: 0 to 90% relative humidity, 25° C. As for the experimental part: Moisture sorption/desorption data was collected on a Vsorp Dynamic Moisture Sorption Analyzer (ProUmid GmbH & Co. KG, Germany). The sample was placed into a tared sample chamber and automatically weighed.
• Equilibrium Condition: 0.01%/40 min • Time between weighing cycles: 10 minutes • Minimum time per climate cycle: 50 minutes • Maximum time per climate cycle: 2.0 hour • Balanced condition: 25° C. at 60% […] for 4 hours • Sample temperature: 25° C. • Adsorption: 70, 80, 90 • Desorption: 80, 70, 60, 50, 40, 30, 20, 10, 0 • Adsorption: 10, 20, 30, 40, 50, 60

Data set [5] in a line: Solubility testing in organic solvents and water (visual, room temperature).
Where [6] appears, read: listed as Form II of the free acid.

As to `CNC(=O)c1ncn2cc(-c3c(F)ccc([N-]S(=O)(=O)c4cc(Cl)cnc4OC)c3F)ncc12.[K+]` [Forms II and III of the Potassium Salt], the “Crystalline form by XRPD” value in data set [1] (0% water without molecular sieves, KF 0.189 wt. %, 50° C., 20 h) is listed as “Form I^20 h”.

Consider `CNC(=O)c1ncn2cc(-c3c(F)ccc(NS(=O)(=O)c4cc(Cl)cnc4OC)c3F)ncc12` [Free acid Form II, 6-(3-((5-chloro-2-methoxypyridine)-3-sulfonamido)-2,6-difluorophenyl)-N-methylimidazo[1,5-a]pyrazine-1-carboxamide], for which the “pH (0 h)” value in data set [2] (FaSSGF, 37° C.) is given as 1.60; in data set [2] (FaSSIF, 37° C.), 6.50. The Concentration was 200 ng/mL in data set [2] (FaSSGF, 37° C., 0.5 h); 300 ng/mL in data set [2] (FaSSGF, 37° C., 2.0 h); 1500 ng/mL in data set [2] (FaSSGF, 37° C., 24 h); 3000 ng/mL in data set [2] (FaSSIF, 37° C., 0.25 h); 1400 ng/mL in data set [2] (FaSSIF, 37° C., 0.5 h); 1300 ng/mL in data set [2] (FaSSIF, 37° C., 0.75 h). In addition, the Concentration is 1300 ng/mL in data set [2] (FaSSIF, 37° C., 1.0 h); 1600 ng/mL in data set [2] (FaSSIF, 37° C., 2.0 h); 4000 ng/mL in data set [2] (FaSSIF, 37° C., 24 h). The “pH (24 h)” value in data set [2] (FaSSGF, 37° C.) is 1.57; in data set [2] (FaSSIF, 37° C.), 6.49. Also, the “XRPD (filter cake, crystal form)” value in data set [2] (FaSSGF, 37° C.) is listed as “Unchanged”; in data set [2] (FaSSIF, 37° C.), “Unchanged”. The “Purity (Area %) 220 nm” value in data set [3] (0 day) came out at 99.96 Area %; in data set [3] (40° C./75% RH (open), 7 days), 99.94 Area %; in data set [3] (60° C./closed, 7 days), 99.94 Area %. Moreover, the “physical and chemical stability” value in data set [3] (both closed (60° C.) and open (40° C./75% RH) conditions for seven days) is “maintained physical and chemical stability”. Further, the DVS weight gain in data set [4] is on record as about 0%; in data set [4] (setting [6]), “almost no weight gain”. Also, the “Hygroscopicity (DVS)” value is reported as “Non-hygroscopic” in data set [4] (class by weight gain to 80% relative humidity) and “below slightly hygroscopic” in data set [4] (relative to the class slightly hygroscopic). Besides, the “XRPD pattern after DVS testing” value in data set [4] (setting [6]) is “No changes”.

Consider `CNC(=O)c1ncn2cc(-c3c(F)ccc(NS(=O)(=O)c4cc(Cl)cnc4OC)c3F)ncc12` [Free acid Form I, 6-(3-((5-chloro-2-methoxypyridine)-3-sulfonamido)-2,6-difluorophenyl)-N-methylimidazo[1,5-a]pyrazine-1-carboxamide], for which the Solubility in data set [5] (Acetone, listed as Form I of the Free Acid) is about 10000 µg/mL (≈ 19700 µM); in data set [5] (DCM, listed as Form I of the Free Acid) it was about 8000 µg/mL (≈ 15700 µM); in data set [5] (DMSO, listed as Form I of the Free Acid), over 230000 µg/mL; in data set [5] (EtOAc, listed as Form I of the Free Acid) it was about 2000 µg/mL (≈ 3930 µM); in data set [5] (EtOH, listed as Form I of the Free Acid) it was about 1000 µg/mL (≈ 1970 µM); in data set [5] (H2O (water), listed as Form I of the Free Acid), under 100 µg/mL. Further, the Solubility in data set [5] (Heptane) was under 100 µg/mL; in data set [5] (IPA, listed as Form I of the Free Acid) it was about 400 µg/mL (≈ 786 µM); in data set [5] (IPAc, listed as Form I of the Free Acid), about 800 µg/mL (≈ 1570 µM); in data set [5] (MEK, listed as Form I of the Free Acid), about 6000 µg/mL (≈ 11800 µM); in data set [5] (MTBE) it was under 100 µg/mL; in data set [5] (MeCN, listed as Form I of the Free Acid), about 5000 µg/mL (≈ 9830 µM). Besides, the Solubility in data set [5] (MeOH, listed as Form I of the Free Acid) is about 700 µg/mL (≈ 1380 µM); in data set [5] (NBA, 24 °C, organic solvent or mixture, thermodynamic from solid, NBA, read-out: Solubility) it was about 700 µg/mL (≈ 1380 µM); in data set [5] (THF, listed as Form I of the Free Acid), about 35000 µg/mL (≈ 68800 µM); in data set [5] (toluene, 24 °C, organic solvent or mixture, thermodynamic from solid, Toluene, read-out: Solubility) it was under 100 µg/mL.

`CNC(=O)c1ncn2cc(-c3c(F)ccc([N-]S(=O)(=O)c4cc(Cl)cnc4OC)c3F)ncc12.[Na+]` [Na salt Form III]: the “pH (0 h)” value in data set [2] (FaSSGF) was 1.60; in data set [2] (FaSSIF) it was 6.50. For the same molecule, the Concentration in data set [2] (FaSSGF, 37° C., 0.5 h) was 45900 ng/mL; in data set [2] (FaSSGF, 37° C., 2.0 h), 4400 ng/mL; in data set [2] (FaSSGF, 37° C., 24 h), 4100 ng/mL; in data set [2] (FaSSIF, 37° C., 0.25 h) it was 176000 ng/mL; in data set [2] (FaSSIF, 37° C., 0.5 h) it was 175000 ng/mL; in data set [2] (FaSSIF, 37° C., 0.75 h) it was 169000 ng/mL. Moreover, the Concentration is 170000 ng/mL in data set [2] (FaSSIF, 37° C., 1.0 h); 13200 ng/mL in data set [2] (FaSSIF, 37° C., 2.0 h); 9900 ng/mL in data set [2] (FaSSIF, 37° C., 24 h). Moreover, the XRPD entry in data set [2] (FaSSGF) and in data set [2] (FaSSIF) was “Changed” in each case. Besides, the “pH (24 h)” value is 1.68 in data set [2] (FaSSGF) and 6.86 in data set [2] (FaSSIF).

In the case of `CNC(=O)c1ncn2cc(-c3c(F)ccc([N-]S(=O)(=O)c4cc(Cl)cnc4OC)c3F)ncc12.[K+]` [Forms I and III of the Potassium Salt], the “Crystalline form by XRPD” value in data set [1] (0% water without molecular sieves, KF 0.189 wt. %, 25° C.) is recorded as “Form III”; in data set [1] (0% water without molecular sieves, KF 0.189 wt. %, 35° C.), “Form III”; in data set [1] (0% water without molecular sieves, KF 0.189 wt. %, 45° C.), “Form III”; in data set [1] (0% water without molecular sieves, KF 0.189 wt. %, 50° C.), “Form III”; in data set [1] (10 V% water, KF 14.9 wt. %, 25° C.), “Form III”; in data set [1] (10 V% water, KF 14.9 wt. %, 35° C.), “Form III”. Also, the “Crystalline form by XRPD” value is listed as “Form III” in data set [1] (10 V% water, KF 14.9 wt. %, 45° C.); “Form III” in data set [1] (10 V% water, KF 14.9 wt. %, 50° C.); “Form III” in data set [1] (25 V% water, KF 34.5 wt. %, 25° C.); “Form III” in data set [1] (25 V% water, KF 34.5 wt. %, 35° C.); “Form III” in data set [1] (25 V% water, KF 34.5 wt. %, 45° C.); “Form III” in data set [1] (25 V% water, KF 34.5 wt. %, 50° C.). The “Crystalline form by XRPD” value in data set [1] (50 V% water, KF 60.1 wt. %, 25° C.) is on record as “Form III”; in data set [1] (50 V% water, KF 60.1 wt. %, 35° C.) it was “Form III”; in data set [1] (50 V% water, KF 60.1 wt. %, 45° C.), “Form III”; in data set [1] (50 V% water, KF 60.1 wt. %, 50° C.), “Form III”; in data set [1] (75 V% water, KF 90.5 wt. %, 25° C.) it was “Form III”; in data set [1] (75 V% water, KF 90.5 wt. %, 35° C.), “Form III”. Moreover, the “Crystalline form by XRPD” value in data set [1] (75 V% water, KF 90.5 wt. %, 45° C.) is given as “Form III”; in data set [1] (75 V% water, KF 90.5 wt. %, 50° C.) it was “Form III”.

Broadly, the Solubility is the concentration that dissolves in the medium under given conditions.
